From patent US6699686B1, “Modified nuclear glucocorticoid receptor, fusion protein, and DNA fragments coding for said receptor and said fusion protein” (Association pour le Development de la Recherche en …, priority 1996, dated 2004)

Target: T1, wild-type hGR (Homo sapiens, UniProt P04150)
T1 construct: expressed in transfected cells
T1 sequence (P04150 1-777): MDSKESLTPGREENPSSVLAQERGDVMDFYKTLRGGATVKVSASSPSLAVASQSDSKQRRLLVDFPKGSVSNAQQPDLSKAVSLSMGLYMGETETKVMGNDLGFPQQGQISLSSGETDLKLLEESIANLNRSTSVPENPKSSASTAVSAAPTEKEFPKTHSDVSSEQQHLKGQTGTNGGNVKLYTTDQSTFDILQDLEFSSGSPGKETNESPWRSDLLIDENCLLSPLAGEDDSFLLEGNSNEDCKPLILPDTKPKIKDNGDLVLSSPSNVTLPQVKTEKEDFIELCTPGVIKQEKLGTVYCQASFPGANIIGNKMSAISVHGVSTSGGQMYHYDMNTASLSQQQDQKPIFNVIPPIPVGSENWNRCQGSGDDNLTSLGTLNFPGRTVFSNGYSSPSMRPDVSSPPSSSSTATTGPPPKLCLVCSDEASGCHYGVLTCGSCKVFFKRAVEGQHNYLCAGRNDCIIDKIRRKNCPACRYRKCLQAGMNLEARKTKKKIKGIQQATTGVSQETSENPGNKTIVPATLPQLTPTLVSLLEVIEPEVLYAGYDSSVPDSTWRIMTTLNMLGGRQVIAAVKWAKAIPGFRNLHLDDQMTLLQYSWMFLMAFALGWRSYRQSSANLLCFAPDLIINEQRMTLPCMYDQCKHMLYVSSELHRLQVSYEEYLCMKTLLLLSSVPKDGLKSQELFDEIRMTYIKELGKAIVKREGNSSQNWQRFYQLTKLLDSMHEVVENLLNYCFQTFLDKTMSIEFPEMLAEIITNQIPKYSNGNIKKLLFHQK
Assay: Transcriptional activation of pTAT-tk-Luc luciferase reporter in transiently transfected CV-1 cells
Format: cell-based
Design: Luciferase activity % Wild type: concentration or dose not given beside the values
Details: for Luciferase activity % Wild type: 24 h ligand, mean of three independent assays; for EC50: ligand concentration giving 50% of maximum transcriptional response
Procedure: The receptors were transiently expressed in GR-free CV-1 cells, conjointly with a luciferase reporter gene under the control of the tyrosine aminotransferase promoter (pTAT-tk-Luc).
After transfection, the cells were incubated for 24 hours with increasing concentrations of Dex, and they were then subjected to an assay of the β-galactosidase and luciferase activities, as described in “Materials and Methods”. The luciferase activity was normalized with the β-galactosidase activity, and the value obtained in the absence of ligand was subtracted for each point. The results were expressed as a percentage of the maximum luciferase activity obtained for each receptor. Each point is the mean±standard deviation of the mean of four separate determinations carried out in duplicate. […] The [^3H] steroid attached was measured after treatment with dextran-coated charcoal. The results presented are those for a single assay carried out in duplicate and representative of three separate assays.
Co-transfections were carried out and dose-response curves were constructed as described in FIG. 2. […] The assays of luciferase and β-galactosidase activity were carried out as described in “Materials and Methods”. The mean values of three independent assays are given in this table. nm=not measurable.
The CV-1 and Cos-7 cells were cultured in Dulbeco's modified Eagle's medium (DMEM) containing 10% (v/v) of fetal calf serum (FCS) (Gibco, Grand Island, N.Y.), in a humidified atmosphere containing 5% CO2. The HeLa cells were cultured under the same conditions. Transient transfections were carried out in 6-well multiplates according to the calcium phosphate procedure already described (42). A reference recombinant plasmid, pCMV-βgal, expressing bacterial β-galactosidase, was transfected conjointly with the receptor expression vector and the corresponding reporter gene so as to correct possible variations in he transfection efficiency. The precipitate was removed by washing after 24 hours, and the cells were kept in DMEX without FCS but containing hormone. After another 24 hours, the cells were rinsed and lysed for 15 minutes with 0.3 ml of lysis buffer [25 mM Tris.phosphate, pH 7.8, 8 mM […], 1% Triton X100, 10% glycerol (48)]. The corresponding luciferase activity as determined on an aliquot fraction (0.1 ml), by evaluation of the luminescence peak (for an integration time of 15 seconds), after injection of 0.1 ml of 1 mM luciferin in an LKB luminometer. The β-galactosidase was determined by the method modified by Bocquel et al. (49), for controlling the efficiency of each transfection.
The reporter gene pTAT-tk-Luc was provided by D. Gagne and was constructed as follows: an intermediate plasmid pTAT was first generated by insertion of the 966 bp EcoRI-BamHI segment obtained from pKT531 [offered freely by T. Grande (50)] into the corresponding sites of the vector pUC19 (Pharmacia). The fragment containing the sequence coding for the firefly luciferase and the thymidine kinase (tk) minimal promoter obtained from the Herpes simplex virus was isolated in the form of a BamHI fragment from pvit-tk-Luc (51) and inserted, downstream of the TAT promoter, into the corresponding site of pTAT. The reporter plasmid pGRE-tk-Luc was constructed by ligation of the fragment of HindIII-BglII digestion of pGRE-tk-CAT (52), which contains a synthetic GRE (AGAACAcagTGTTCT) upstream of the tk minimal promoter, into the HindIII-BglII sites of pLuc (53). The reporter gene p(17M)5-βGlob-Luc has been previously described (54). The reporter plasmid p(17M)5-tata-Luc was constructed from the plasmid p(17M)5-tata-CAT (55) by digestion with XhoI-BamHI and isolation of the fragment containing (17M5)-tata. This fragment was then inserted into the vector pGL2 (Promega) digested with the same restriction enzymes.

Row | SMILES | stimulation of the luciferase reporter with the wild-type GR | Luciferase activity % Wild type [%] | EC50 [nM]
1 | C[C@]12CCC(=O)C=C1CC[C@@H]1[C@@H]2[C@@H](O)C[C@]2(C=O)[C@@H](C(=O)CO)CC[C@@H]12 [Aldosterone, aldosterone] | as effective as Dex | 90 | 50
2 | C[C@]12C[C@H](O)[C@H]3[C@@H](CCC4=CC(=O)CC[C@@]43C)[C@@H]1CC[C@@H]2C(=O)CO [Corticosterone, corticosterone] | as effective as Dex | 100 | 70
3 | C[C@]12CCC(=O)C=C1CC[C@@H]1[C@@H]2[C@@H](O)C[C@@]2(C)[C@H]1CC[C@]2(O)C(=O)CO [Cortisol, cortisol] | as effective as Dex | 110 | 
4 | C[C@@H]1C[C@H]2[C@@H]3CCC4=CC(=O)C=C[C@]4(C)[C@@]3(F)[C@@H](O)C[C@]2(C)[C@@]1(O)C(=O)CO [Dexamethasone, dexamethasone] |  | 100 | 
